The test system of series [1] is dogs. In words: Toxicological studies, dogs. Format: in vivo.
Series [2] deals with rats. In words: Safety studies in rats. Type of series: in vivo, rat.
Series [3] relates to L-dopa-treated unilateral 6-hydroxydopamine-lesioned rats. As to the kind of experiment: L-dopa-induced AIMs (dyskinesia) in unilateral 6-OHDA-lesioned rats. Format: in vivo, rat. The procedure: The subtype selective NNR agonist Compound A, stimulates […] and to a lesser extent α6* NNRs. […] Experiments were performed using male Sprague-Dawley rats that were unilaterally lesioned with 6-OHDA (Sigma Chemical Co., St. Louis, Mo.) as previously described (Cenci et al., 1998; Cenci et al., 2002). 6-OHDA was dissolved in 0.02% ascorbic acid/saline at a concentration of 3 μg/μl. Compound A was systemically infused via osmotic minipumps (Alzet model 2006; Durect Corporation, Cupertino, Calif., USA), which delivered drug at a rate of 3.6 μl/day for 6 wk. […] Pumps were pre-filled with either sterilized water or Compound A base in water (pH 7.0) to provide the required doses (0.03, 0.1, 0.3 mg/kg/d). The minipumps were subcutaneously implanted along the dorsal aspect of the neck between the shoulder blades, according to the manufacturer's instruction, under isofluorane anesthesia. After implantation, rats were administered buprenorphine (0.02 mg/kg sc) for post-operative pain. Two weeks after initiation of drug treatment, the rats were administered single daily subcutaneous injections of 6 to 8 mg/kg L-dopa methyl ester plus 15 mg/kg benserazide. Two μl aliquots were stereotaxically injected at each of two sites for a total of 8 to 12 μg into the right ascending dopamine fiber bundle. Infusion of 6-OHDA into the target area was over a 2-min period, with the cannula maintained at the site of injection for a further 2 min. Two to three weeks after lesioning, rats were tested for drug-induced rotational behavior in an automated behavioral measurement apparatus (ROTOMAX, AccuScan Instruments Inc. Columbus, Ohio, USA). Each rat was placed in a cylindrical glass chamber for 30 min for acclimatization, after which 4.0 mg/kg amphetamine (Sigma Chemical Co., St. Louis, Mo.) was administered intraperitoneally (ip). Amphetamine-induced rotational behavior was monitored for 90 min, with rats making at least 200 ipsilateral turns/90 min used for further study.
L-dopa-induced AIMs were determined as indicated. See FIG. 1 for experiment dosing and testing regimen. Behavioral testing was done in the morning starting between 9 and 10 AM. Three different AIMs subtypes were measured including (1) axial dystonia, contralateral twisted posturing of the neck and upper body; (2) abnormal orolingual movements, stereotyped jaw movements and contralateral tongue protrusion; and (3) abnormal forelimb movements, repetitive rhythmic jerks or dystonic posturing of the contralateral forelimb and/or grabbing movements of the contralateral paw. See, for example, Carta M, Lindgren HS, Lundblad M, Stancampiano R, Fadda F, Cenci M A (2006), Role of Striatal L-DOPA in the Production of Dyskinesia in 6-hydroxydopamine Lesioned Rats. J Neurochem 96:1718-172; Cenci M A, Lee C S, Bjorklund A (1998) L-DOPA-induced dyskinesia in the rat is associated with striatal overexpression of prodynorphin- and glutamic acid decarboxylase mRNA; Eur J Neurosci 10:2694-2706; Cenci M A, Whishaw I Q, Schallert T (2002) Animal models of neurological deficits: how relevant is the rat? Nat Rev Neurosci 3:574-579; Bordia, T., Campos, C., Huang, L. Z. & Quik, M., “Continuous And Intermittent Nicotine Treatment Reduces L-3,4-Dihydroxyphenylalanine (L-Dopa)-Induced Dyskinesias In A Rat Model Of Parkinson's Disease,” J Pharmacol Exp Ther 327: 239-47 (2008)). Rats were scored on a scale from 0 to 4 for each of these three AIM subtypes as follows: 1=occasional; 2=frequent; 3=continuous but interrupted by sensory distraction; and 4=continuous, severe, not interrupted by sensory distraction. Animals were evaluated for AIMs for an initial 20 min baseline period, as well as for 3 h following L-dopa injection by a blinded rater. Assessment of the different subtypes of AIMs was done over 20 min sessions, thus yielding a total of 9 sessions of testing per animals. The maximum possible score for each animal was thus 108 (maximum score per session=12; number of sessions over 3 h=9). […]

For series [4], the system named is primates. As to the kind of experiment: Toxicological studies, primates. Format: in vivo.
In series [5] the test system is rodents. In words: Toxicological studies, rodents. Type of series: in vivo.
The subject of series [6] is Parkinsonian rats. As to the kind of experiment: Limb use asymmetry (cylinder) test of motor function in Parkinsonian rats. Format: in vivo, rat. Here is the method:
Because drugs that reduce AIMs may worsen Parkinsonism, the effect of Compound A (PD1) was also tested on motor function in Parkinsonian rats (see FIG. 3) using the limb use asymmetry or cylinder test. The cylinder test was used as an index of behavioral function after unilateral nigrostriatal damage, with explorative activity analyzed as previously described. Animals were placed in a transparent cylinder (20 cm diameter×30 cm height) or in a transparent cage and evaluated over a 5 min period. A mirror was placed behind the cylinder/cage to allow the raters to view forelimb movements when the rat was turned away from the rater. Wall exploration was expressed in terms of the percentage of use of the impaired forelimb (contralateral to the lesion) compared to the total number of limb use movements. Two raters, one blinded to the treatment status of the rats, performed the ratings. Correlation analyses yielded a high inter-rater reliability (R=0.99). […] The rat is placed in a transparent cylinder, which results in vertical exploration and the percentage of contact of the unimpaired and impaired forelimb against the cylinder evaluated (Cenci, M. A. and M. Lundblad, “Post-Versus Presynaptic Plasticity In L-Dopa-lnduced Dyskinesia,”. J Neurochem, 99: 381-392 (2006); Tillerson, J. L. et al., “Forced Limb-Use Effects On The Behavioral And Neurochemical Effects Of 6-Hydroxydopamine,” J Neurosci 21, 4427-35 (2001); and Meredith, G. E. & U. J. Kang, “Behavioral Models Of Parkinson's Disease In Rodents: A New Look At An Old Problem,” Mov Disord, 21: 1595-606 (2006).

Series [7] deals with Parkinsonian rodents. As to conditions: cited from earlier work.
For series [8], the system named is Parkinsonian nonhuman primates. As to conditions: cited from earlier work.
Setting [9] is: 0.1 or 0.3 mg/kg/d via subcutaneous minipump.

“Also recorded” adds a separate entry of the source.

In the case of `C(=C\[C@H]1CCNC1)/c1cncnc1` [Compound A, (R)-5-((E)-2-pyrrolidin-3-ylvinyl)pyrimidine], the “incidence of peripheral side effects” value in series [1], in series [4] and in series [5] was “low incidence of peripheral side effects” throughout. Moreover, the detrimental effects entry in series [2] (acute free base oral doses up to 30 mg/kg) was “not associated with any significant detrimental effects”. Also, the behavioral sensitization entry in series [2] (rats) is “no behavioral sensitization”. For the same compound, the locomotor activity entry in series [2] (rats) is “did not increase locomotor activity”. Also, the “total AIMs” value is listed as “significant decline in total AIMs” in series [3] (0.1 mg/kg/day, second and third assessments); “significant decline in total AIMs” in series [3] (0.3 mg/kg/day, fourth assessment); “trends for declines in total AIMs” in series [3] (first and fifth AIMs assessments). Moreover, in series [3] (0.1 and 0.3 mg/kg/day, across multiple assessments, P<0.05 vs control (FIG. 2)), the “L-dopa-induced AIMs, total or some subset (axial, oral and/or forelimb)” value was “reduce L-dopa-induced AIMs; also recorded: significant reduction”. Also, the “reduction in oral versus axial AIMs” value in series [3] (setting [9]) is “more pronounced reduction in oral than axial AIMs”. In addition, the “reduction of total L-dopa-induced AIMs” value in series [3] (setting [9]) is approximately 25%. In series [3] (minipump treatment in the AIMs study), the “adverse effects (body weight, body temperature, grooming, urination, defecation, secretion)” value is “no detectable adverse effects”. Besides, the “Parkinsonism / motor function, trend” value in series [6] (lesioned rats, either dose tested) was “small trend for improvement; also recorded: trend for improving Parkinsonism”. The baseline motor function result in series [6] (off L-dopa, either dose tested, across the experiment) is given as “does not worsen baseline motor function”. Further, the “enhanced limb use with L-dopa treatment” value in series [6] (on L-dopa, either dose tested, across the experiment) is reported as “nor does it worsen the enhanced limb use”. Also, the “parkinsonism, asymmetric forelimb or cylinder test (FIG. 3)” value in series [6] (two doses, Off or On L-dopa, several occasions) is reported as “do not worsen parkinsonism”.
As to `CN1CCCC1c1cccnc1` (centres unmarked) [nicotine], the “reduction of L-dopa-induced dyskinetic-like movements” value in series [7] (Parkinsonian rodents) and in series [8] was approximately 50% each time. Moreover, in series [7] (rats, given continuously via osmotic minipump), the “L-dopa-induced AIMs” value is “most effectively reduced L-dopa-induced AIMs”.

These data come from patent publication US20120157477A1, “REVERSAL OF L-DOPA-INDUCED DYSKINESIA BY NEURONAL NICOTINIC RECEPTOR LIGANDS” (TARGACEPT, INC., priority 2009, published 2012).
